In article PMC10110893, “[…]-derived synthetic cannabinoids inhibit T-type calcium channels with divergent effects on seizures in rodent models of epilepsy” (Frontiers in Physiology, 2023):

How the values were obtained:
[1] = target: T1, human Cav3.1 (Homo sapiens, UniProt O43497); assay: Whole-cell patch-clamp electrophysiology, Cav3.1; format: cell-based
T1 construct: expressed in transfected cells; host or cells: HEK293 FlpIn T-Rex cells (Invitrogen)
Procedure: All whole-cell voltage-clamp recordings from HEK293 FlpIn T-Rex cells stably transfected with human Cav3.1 were performed at room temperature. At least 24 h prior to experiments, cells were detached from flasks using trypsin/EDTA and plated into 10 cm sterile tissue culture dishes containing 10 mL of supplemented DMEM and 10–15 glass coverslips (12 mm diameter, ProScitech, QLD, Australia). Culture dishes were then kept overnight in same conditions as flasks to allow cells to adhere to coverslips. They were then transferred to a 30°C/5% CO2 incubator to inhibit cell proliferation until ready to be used for electrophysiology experiments. At this stage, channel expression was induced with tetracycline (2 μg/mL, Sigma-Aldrich) 8–24 h prior to recording cells.
External recording solutions contained (in mM): 114 CsCl, 5 BaCl2, 1 MgCl2, 10 HEPES, 10 glucose, adjusted to pH 7.4 with CsOH. The internal patch pipette solution contained (in mM): 126.5 CsMeSO4, 2 MgCl2, 11 EGTA, 10 HEPES adjusted to pH 7.3 with CsOH. […] Liquid junction potentials for the above solutions were calculated before experiments using pClamp 10 software and corrected during experiments. […] Currents were elicited from a holding potential of −100 mV and were measured by conventional whole-cell patch clamp techniques using an Axopatch 200B amplifier in combination with Clampex 9.2 software (Molecular Devices, Sunnyvale, CA). […]

[2] = Brain concentration after sub-chronic administration in chow; format: in vivo, mouse; conditions: 5,000 mg/kg chow ad libitum P18–23, male and female mice, n = 10
Procedure: Plasma samples (50 μL) were spiked with an internal standard (diazepam) and vortexed with 1 M NaOH (50 μL) and methyl tert-butyl ether (1 mL) to achieve protein precipitation. The organic layer was isolated by centrifugation (4,000 g for 3 min) before being frozen for 60 min at −80°C, evaporated to dryness using N2, and reconstituted in 30% acetonitrile and 0.1% formic acid in water for analysis. Brain hemispheres were homogenised in a 10x w/v 1:1 methanol-water solution using a Biospec Tissue-Tearor (Bartlesville, United States) and centrifuged at 20,000 g for 30 min at 4°C. Supernatant (100 μL) was collected and prepared following the same method as plasma.
SB2193 and SB2193F concentrations in brain and plasma samples were assessed by high performance liquid chromatography-tandem mass spectrometry (HPLC-MS/MS) using a Shimadzu Nexera liquid chromatograph coupled with a Shimadzu 8,030 triple quadrupole mass spectrometer (Kyoto, Japan). […]
Quantification was achieved by comparing experimental samples to plasma and brain standards prepared with known concentrations of SB2193 or SB2193F. Samples were quantified against a 7-point standard curve (R ^2 > 0.98 for both analytes). […]

[3] = tested on: Scn1a +/- mouse model of Dravet syndrome; assay: Spontaneous seizures and survival monitoring in Scn1a+/- mice; format: in vivo
Procedure: Scn1a ^ +/− mice purchased from The Jackson Laboratory (stock 37107-JAX; Bar Harbour, United States) were maintained as a congenic line on a 129S6/SvEvTac background (129. Scn1a ^+/−). F1 mice were generated by crossing 129. Scn1a ^+/− mice with wild-type C57BL/6J mice (Jackson Laboratory stock no. 000664) and group housed. Scn1a genotype was determined as previously described ([Miller et al., 2014]).
On P18, male and female Scn1a ^ +/− mice were weaned and randomly assigned to treatment groups (untreated or SB2193) with n = 17–19 per group. For spontaneous seizure and survival experiments, SB2193 was administered sub-chronically via supplementation of the compound into chow to avoid stress associated with repeated i.p. injections. Chow was formulated at 5,000 mg/kg SB2193 in chow to provide target brain concentrations of 0.73 μM, with the daily oral dose based on the assumption that each mouse consumes approximately 3 g chow/day. Bodyweight of mice was monitored during the administration period to ensure consumption of chow. Animals in both treatment groups gained weight at an equivalent rate over the chow supplementation period (Supplementary Figure S1).
Continuous video recordings from 00:00 P23 to 24:00 P24 were made using a Samsung SCB-5003 days/night camera equipped with an infrared lens (Seoul, South Korea). The number of spontaneous generalised tonic-clonic seizures (GTCS) occurring over the 48 h recording period was quantified offline by a blinded observer. Statistical comparison was performed in GraphPad Prism using a Mann-Whitney U test as data were non-parametric. Treatment was continued to P30 to monitor survival of mice. Scn1a ^ +/− mice have a high premature mortality rate, with approximately 50% of animals surviving to P30 ([Miller et al., 2014]). We have observed substantial variability in the mortality rate across experimental cohorts which is difficult to explain and likely due to stochastic factors ([Anderson et al., 2020]; [Anderson et al., 2021]; [Anderson et al., 2022]). […]

T1 sequence (O43497 whole entry): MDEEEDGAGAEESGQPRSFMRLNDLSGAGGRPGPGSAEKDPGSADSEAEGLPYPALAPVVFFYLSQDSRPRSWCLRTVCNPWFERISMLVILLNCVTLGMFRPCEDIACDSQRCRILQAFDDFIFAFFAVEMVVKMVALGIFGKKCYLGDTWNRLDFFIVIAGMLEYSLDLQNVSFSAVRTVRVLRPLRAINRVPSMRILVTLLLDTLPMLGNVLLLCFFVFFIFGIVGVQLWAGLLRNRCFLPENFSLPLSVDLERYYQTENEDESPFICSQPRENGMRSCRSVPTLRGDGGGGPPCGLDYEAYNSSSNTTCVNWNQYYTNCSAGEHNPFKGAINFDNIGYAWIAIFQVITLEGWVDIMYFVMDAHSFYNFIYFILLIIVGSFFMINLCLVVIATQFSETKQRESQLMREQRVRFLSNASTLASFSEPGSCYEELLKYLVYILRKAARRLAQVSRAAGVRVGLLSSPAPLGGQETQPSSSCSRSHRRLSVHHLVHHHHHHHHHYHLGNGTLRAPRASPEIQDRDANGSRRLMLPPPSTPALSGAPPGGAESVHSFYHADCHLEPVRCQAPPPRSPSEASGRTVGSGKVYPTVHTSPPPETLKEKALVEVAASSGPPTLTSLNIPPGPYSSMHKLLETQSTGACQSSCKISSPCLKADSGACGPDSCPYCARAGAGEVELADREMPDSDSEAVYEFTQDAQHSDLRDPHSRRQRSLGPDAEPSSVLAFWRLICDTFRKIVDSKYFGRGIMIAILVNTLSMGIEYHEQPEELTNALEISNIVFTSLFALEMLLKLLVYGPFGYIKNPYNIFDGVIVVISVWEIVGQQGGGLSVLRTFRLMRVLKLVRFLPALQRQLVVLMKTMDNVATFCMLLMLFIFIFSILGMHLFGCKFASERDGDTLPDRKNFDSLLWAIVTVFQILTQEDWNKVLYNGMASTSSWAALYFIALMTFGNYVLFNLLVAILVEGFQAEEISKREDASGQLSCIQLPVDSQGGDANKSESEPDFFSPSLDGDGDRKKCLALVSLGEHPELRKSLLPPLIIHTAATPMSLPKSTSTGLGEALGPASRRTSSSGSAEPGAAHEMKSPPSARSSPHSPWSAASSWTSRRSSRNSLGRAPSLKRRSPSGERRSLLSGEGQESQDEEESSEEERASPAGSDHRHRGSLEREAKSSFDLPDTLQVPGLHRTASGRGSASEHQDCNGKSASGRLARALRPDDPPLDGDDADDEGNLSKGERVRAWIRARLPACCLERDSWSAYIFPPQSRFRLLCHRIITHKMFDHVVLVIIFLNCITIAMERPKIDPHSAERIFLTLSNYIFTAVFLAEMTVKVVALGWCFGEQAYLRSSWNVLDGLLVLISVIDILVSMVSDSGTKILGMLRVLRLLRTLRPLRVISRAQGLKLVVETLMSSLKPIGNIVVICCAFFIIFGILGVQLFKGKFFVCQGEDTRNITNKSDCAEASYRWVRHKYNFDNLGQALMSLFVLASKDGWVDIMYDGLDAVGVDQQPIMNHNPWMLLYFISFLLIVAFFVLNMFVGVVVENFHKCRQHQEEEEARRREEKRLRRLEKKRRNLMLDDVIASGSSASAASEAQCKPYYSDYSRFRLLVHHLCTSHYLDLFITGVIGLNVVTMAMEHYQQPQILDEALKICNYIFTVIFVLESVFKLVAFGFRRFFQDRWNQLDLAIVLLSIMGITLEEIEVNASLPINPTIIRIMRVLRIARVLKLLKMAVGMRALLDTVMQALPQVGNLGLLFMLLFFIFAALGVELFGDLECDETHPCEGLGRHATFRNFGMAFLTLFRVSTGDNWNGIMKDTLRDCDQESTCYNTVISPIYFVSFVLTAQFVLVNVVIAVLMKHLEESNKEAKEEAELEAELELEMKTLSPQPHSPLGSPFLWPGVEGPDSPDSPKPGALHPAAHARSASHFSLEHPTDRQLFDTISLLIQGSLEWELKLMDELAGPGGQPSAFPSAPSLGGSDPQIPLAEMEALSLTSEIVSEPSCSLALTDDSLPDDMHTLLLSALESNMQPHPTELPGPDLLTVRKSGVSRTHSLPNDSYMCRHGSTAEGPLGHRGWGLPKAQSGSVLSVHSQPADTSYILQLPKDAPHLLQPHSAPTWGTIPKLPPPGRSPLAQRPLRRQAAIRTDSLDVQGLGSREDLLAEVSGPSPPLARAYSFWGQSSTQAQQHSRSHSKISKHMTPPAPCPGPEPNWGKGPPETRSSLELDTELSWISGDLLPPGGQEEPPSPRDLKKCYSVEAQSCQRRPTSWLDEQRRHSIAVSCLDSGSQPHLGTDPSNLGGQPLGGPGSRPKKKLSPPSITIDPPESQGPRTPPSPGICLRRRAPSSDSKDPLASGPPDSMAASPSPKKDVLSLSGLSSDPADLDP

With CCCCCn1cc(C(=O)N2CCN(C(=O)OC(C)(C)C)CC2)c2ccccc21 [SB2193] the “potency in patch clamp less than that determined by the FLIPR assay” value ([1]; Cav3.1, patch clamp vs FLIPR) was “approximately 4 fold”, the IC50 ([1]; whole-cell patch clamp, n = 7–8, read-out: Cav3.1 pIC50 (converted)) was 3.55 µM and the brain concentration [2] was 1700 ± 600 nM. The “survival of mice to P30” value ([3]; 5,000 mg/kg chow orally P18–P30) was “no effect”, the “spontaneous seizure (GTCS) frequency vs control mice” value ([3]; 5,000 mg/kg chow orally from P18, 48 h recording P23-24, n = 17–19) was “did not decrease” and the bodyweight change ([3]; SB2193-treated vs untreated chow, P18 to P30, n = 14) was “no effect of treatment”.
